Data taken from ChEMBL document CHEMBL3272121, “Hypolipidemic analogues of ethyl 4-benzyloxybenzoate” (J Med Chem, 1977).

Legend:
[1] = test system: Rattus norvegicus; experiment: Hypolipidemic activity in CFY Sprague-Dawley rat assessed as serum triglyceride level at 0.25% dietary level administered for 7 days relative to control; assay type: functional
[2] = test system: Rattus norvegicus; experiment: Toxicity in CFY Sprague-Dawley rat assessed as body weight gain at 0.25% dietary level administered for 7 days relative to control; assay type: organism-based; conditions: in vivo, po, 168 h
[3] = test system: Rattus norvegicus; experiment: Toxicity in CFY Sprague-Dawley rat assessed as relative liver weight at 0.25% dietary level administered for 7 days relative to control; assay type: organism-based; conditions: in vivo, po, 168 h
[4] = test system: Rattus norvegicus; experiment: Toxicity in CFY Sprague-Dawley rat assessed as body weight gain at 0.2% dietary level administered for 7 days relative to control; assay type: organism-based; conditions: in vivo, po, 168 h
[5] = test system: Rattus norvegicus; experiment: Toxicity in CFY Sprague-Dawley rat assessed as relative liver weight at 0.2% dietary level administered for 7 days relative to control; assay type: organism-based; conditions: in vivo, po, 168 h
[6] = test system: Rattus norvegicus; experiment: Hypolipidemic activity in CFY Sprague-Dawley rat assessed as liver lipid per gm of liver at 1% dietary level administered for 7 days relative to control; assay type: functional
[7] = test system: Rattus norvegicus; experiment: Hypolipidemic activity in CFY Sprague-Dawley rat assessed as serum cholesterol level at 0.5% dietary level administered for 7 days relative to control; assay type: functional
[8] = test system: Rattus norvegicus; experiment: Hypolipidemic activity in CFY Sprague-Dawley rat assessed as serum cholesterol level at 1% dietary level administered for 7 days relative to control; assay type: functional
[9] = test system: Rattus norvegicus; experiment: Toxicity in CFY Sprague-Dawley rat assessed as relative liver weight at 0.5% dietary level administered for 7 days relative to control; assay type: organism-based; conditions: in vivo, po, 168 h
[10] = test system: Rattus norvegicus; experiment: Hypolipidemic activity in CFY Sprague-Dawley rat assessed as liver lipid per gm of liver at 0.5% dietary level administered for 7 days relative to control; assay type: functional
[11] = test system: Rattus norvegicus; experiment: Toxicity in CFY Sprague-Dawley rat assessed as body weight gain at 1% dietary level administered for 7 days relative to control; assay type: organism-based; conditions: in vivo, po, 168 h
[12] = test system: Liver; experiment: Inhibition of fatty acid biosynthesis from [1-14C]acetate in rat liver slices at 1 X 10^-4 M relative to control; assay type: functional
[13] = test system: Rattus norvegicus; experiment: Hypolipidemic activity in CFY Sprague-Dawley rat assessed as serum triglyceride level at 1% dietary level administered for 7 days relative to control; assay type: functional
[14] = test system: Rattus norvegicus; experiment: Hypolipidemic activity in CFY Sprague-Dawley rat assessed as liver lipid per gm of liver at 0.2% dietary level administered for 7 days relative to control; assay type: functional
[15] = test system: Rattus norvegicus; experiment: Toxicity in CFY Sprague-Dawley rat assessed as body weight gain at 0.1% dietary level administered for 7 days relative to control; assay type: organism-based; conditions: in vivo, po, 168 h
[16] = test system: Rattus norvegicus; experiment: Hypolipidemic activity in CFY Sprague-Dawley rat assessed as serum cholesterol level at 0.1% dietary level administered for 7 days relative to control; assay type: functional
[17] = test system: Rattus norvegicus; experiment: Toxicity in CFY Sprague-Dawley rat assessed as relative liver weight at 0.1% dietary level administered for 7 days relative to control; assay type: organism-based; conditions: in vivo, po, 168 h
[18] = test system: Rattus norvegicus; experiment: Hypolipidemic activity in CFY Sprague-Dawley rat assessed as liver lipid per gm of liver at 0.25% dietary level administered for 7 days relative to control; assay type: functional
[19] = test system: Rattus norvegicus; experiment: Hypolipidemic activity in CFY Sprague-Dawley rat assessed as serum cholesterol level at 0.25% dietary level administered for 7 days relative to control; assay type: functional
[20] = test system: Rattus norvegicus; experiment: Hypolipidemic activity in CFY Sprague-Dawley rat assessed as serum cholesterol level at 0.2% dietary level administered for 7 days relative to control; assay type: functional
[21] = test system: Rattus norvegicus; experiment: Hypolipidemic activity in CFY Sprague-Dawley rat assessed as serum triglyceride level at 0.2% dietary level administered for 7 days relative to control; assay type: functional
[22] = test system: Rattus norvegicus; experiment: Hypolipidemic activity in CFY Sprague-Dawley rat assessed as serum triglyceride level at 0.1% dietary level administered for 7 days relative to control; assay type: functional
[23] = test system: Rattus norvegicus; experiment: Hypolipidemic activity in CFY Sprague-Dawley rat assessed as liver lipid per gm of liver at 0.1% dietary level administered for 7 days relative to control; assay type: functional
[24] = test system: Liver; experiment: Inhibition of fatty acid biosynthesis from [1-14C]acetate in rat liver slices at 5 X 10^-4 M relative to control; assay type: functional
[25] = test system: Liver; experiment: Inhibition of cholesterol biosynthesis from [1-14C]acetate in rat liver slices at […] relative to control; assay type: functional
[26] = test system: Rattus norvegicus; experiment: Hypolipidemic activity in CFY Sprague-Dawley rat assessed as serum triglyceride level at 0.5% dietary level administered for 7 days relative to control; assay type: functional
[27] = test system: Rattus norvegicus; experiment: Toxicity in CFY Sprague-Dawley rat assessed as body weight gain at 0.5% dietary level administered for 7 days relative to control; assay type: organism-based; conditions: in vivo, po, 168 h
[28] = test system: Rattus norvegicus; experiment: Toxicity in CFY Sprague-Dawley rat assessed as relative liver weight at 1% dietary level administered for 7 days relative to control; assay type: organism-based; conditions: in vivo, po, 168 h
[29] = test system: Liver; experiment: Inhibition of cholesterol biosynthesis from [1-14C]acetate in rat liver slices at 1 X 10^-4 M relative to control; assay type: functional

| Structure (SMILES) | Activity [1] | Activity [2] | Activity [3] | Activity [4] | Activity [5] | Activity [6] | Activity [8] | Activity [11] | Activity [13] | Activity [14] | Activity [18] | Activity [19] | Activity [20] | Activity [21] | inhibition at 500 µM [24] | inhibition at 500 µM [25] | Activity [28] | other results |
| --- | --- | --- | --- | --- | --- | --- | --- | --- | --- | --- | --- | --- | --- | --- | --- | --- | --- | --- |
| CCOC(=O)c1ccc(OCc2ccccc2)cc1 | -61% | 1% | 8% | -8% | 8% | 9% | -20% | -45% | -29% | -3% | 2% | -17% | -20% | -67% | 91% | 68% | 37% | Activity [7]: -18%; Activity [9]: 22%; Activity [10]: 10%; inhibition at 100 µM [12]: -7%; Activity [15]: 6%; Activity [16]: -9%; Activity [17]: 9%; Activity [22]: -14%; Activity [23]: 0%; Activity [26]: -41%; Activity [27]: -40%; inhibition at 100 µM [29]: 42% |
| CCOC(=O)CCc1ccc(OCc2ccc(F)cc2)cc1 | -43% | -1% | -5% | – | – | – | – | – | – | – | 7% | -20% | – | – | – | – | – | Activity [7]: -19%; Activity [9]: 15%; Activity [10]: 8%; inhibition at 100 µM [12]: 82%; Activity [26]: -59%; Activity [27]: 4%; inhibition at 100 µM [29]: 87% |
| CCOC(=O)c1ccc(OCc2ccc(C)cc2)cc1 | -54% | -4% | 4% | 14% | 2% | 3% | -13% | -19% | -46% | -7% | 1% | -18% | -17% | -42% | 47% | 47% | 19% | – |
| CCOC(=O)c1ccc(OCc2cc(C)ccc2C)cc1 | -49% | -21% | -9% | – | – | – | – | – | – | – | – | -12% | – | – | 55% | 93% | – | – |
| CCOC(=O)c1ccc(OCc2cccc(C(F)(F)F)c2)cc1 | 8% | 12% | 9% | – | – | – | – | – | – | – | – | -11% | – | – | 92% | 99% | – | – |
| CCOC(=O)c1ccc(OCc2ccccc2[N+](=O)[O-])cc1 | -21% | 8% | 12% | – | – | – | – | – | – | – | 3% | -20% | – | – | 69% | 82% | – | – |
| CCOC(=O)Cc1ccc(OCc2ccccc2)cc1 | -84% | -23% | 28% | – | – | – | – | – | – | – | 65% | -18% | – | – | 100% | 93% | – | – |
| CCCCCCCCCc1ccc(OCc2ccccc2)cc1 | -67% | -41% | -5% | – | – | – | – | – | – | – | – | -12% | – | – | 60% | 67% | – | – |
| CCOC(=O)c1ccc(OCc2ccc(Br)cc2)cc1 | -52% | 1% | 10% | 17% | 8% | 4% | -24% | -8% | -39% | -2% | 0% | -29% | -23% | -62% | 84% | 98% | 20% | – |
